Experimental findings from EP0416393A1, “Peptidyl difluorodiol renin inhibitors” (ABBOTT LABORATORIES, priority 1989, dated 1991) are described below.

The assay deals with T1, human renal renin (Homo sapiens, UniProt P00797).
T1 construct: human renal renin, free from acid proteolytic activity; from tissue; host or cells: human kidney (concluded from the word 'renal')
T1 sequence (P00797 67-406): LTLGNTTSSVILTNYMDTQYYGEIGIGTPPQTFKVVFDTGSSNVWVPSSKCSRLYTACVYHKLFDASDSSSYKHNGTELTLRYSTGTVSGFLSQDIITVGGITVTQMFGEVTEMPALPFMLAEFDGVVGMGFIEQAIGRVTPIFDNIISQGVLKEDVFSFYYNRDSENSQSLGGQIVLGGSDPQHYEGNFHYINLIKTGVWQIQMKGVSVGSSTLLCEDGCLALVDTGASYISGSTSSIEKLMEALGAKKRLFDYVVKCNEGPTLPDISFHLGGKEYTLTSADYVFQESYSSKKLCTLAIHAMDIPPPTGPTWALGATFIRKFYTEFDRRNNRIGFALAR
The experiment in a line: Inhibition of human renal renin with human angiotensinogen substrate; angiotensin I formed measured by radioimmunoassay. Type of assay: biochemical. The conditions noted are these: 37 degrees C, pH 6.0; read-out: IC₅₀. The procedure: At the end of the incubation, the amount of angiotensin I formed is measured by radioimmunoassay and the molar concentration required to cause 50% inhibition, expressed as the IC₅₀ is calculated. […]
For the compound `CC(O)C(F)(F)C(O)C(CC1CCCCC1)NC(=O)C(Cc1c[nH]cn1)NC(=O)C(Cc1ccccc1)NC(=O)OC(C)(C)C` [Example 78, Boc-Phe-His amide of 2(S)-Amino-1-cyclohexyl-4,4-difluoro-3(R),5(R,S)-dihydroxyhexane], the IC50 was 2.5 nM.
In the case of `CC(C)[C@@H](O)C(F)(F)[C@H](O)[C@H](CC1CCCCC1)NC(=O)[C@H](Cc1c[nH]cn1)NC(=O)[C@H](Cc1ccccc1)NC(=O)OC(C)(C)C` [Example 77, Boc-Phe-His-amide of 2(S)-Amino-1-cyclohexyl-4,4-difluoro-3(R),5(R)-dihydroxy-6-methylheptane], the IC50 was determined as 1.2 nM.
The figure for `CC(C)C(O)C(F)(F)C(O)C(CC1CCCCC1)NC(=O)C(Cc1c[nH]cn1)NC(=O)C(CC(=O)N1CCOCC1)Cc1cccc2ccccc12` [Example 86, 2(R,S)-(4-morpholinylcarbonylmethyl)-3-(1′-naphthyl)-propionic acid amide of His-2(S)-amino-1-cyclohexyl-4,4-difluoro-3(R),5(R)-dihydroxy-6-methylheptane] is 1.2 nM; for `CC(C)CC(NC(=O)C(Cc1ccccc1)NC(=O)OC(C)(C)C)C(=O)NC(CC1CCCCC1)C(O)C(F)(F)C(O)C(C)C` [Example 61, Boc-Phe-Leu amide of 2(S)-Amino-1-cyclohexyl-4,4-difluoro-3(R),5(S)-dihydroxy-6-methylheptane] it is 22 nM.
For the compound `CC(C)[C@@H](O)C(F)(F)[C@H](O)[C@H](CC1CCCCC1)NC(=O)[C@H](Cc1cscn1)NC(=O)[C@@H](CC(=O)N1CCN(C)CC1)Cc1ccccc1` [Example 93, 2(R)-2-Benzyl-3(4-methylpiperazine-1-ylcarbonyl)propionic acid amide of L-(4-thiazolyl)alamine-2(S) amino-1-cyclohexyl-4,4-difluoro-3(R),5(R)-dihydroxy-6-methylheptane], the IC50 turned out to be 1.5 nM.
`CC(C)CC(NC(=O)C(Cc1ccccc1)NC(=O)OC(C)(C)C)C(=O)NC(CC1CCCCC1)C(=O)C(F)(F)C(=O)C(C)C` [Example 98, Boc-Phe-Leu amide of 2(S)-Amino-1-cyclohexyl-4,4-difluoro-3,5-dioxo-6-methylheptane]: the IC50 came to 0.69 nM.
On to “Cbz((β,β-di-Me)-β-Ala)-Phe-His amide of 2(S)-Amino-1-cyclohexyl-4,4-difluoro-3(R),5(R)-dihydroxy-6-methylheptane [Example 79]”, for which the IC50 came to 1.1 nM.
Next, `CC(C)[C@@H](O)C(F)(F)[C@H](O)[C@H](CC1CCCCC1)NC(=O)[C@H](Cc1c[nH]cn1)NC(=O)[C@@H](CC(=O)N1CCOCC1)Cc1ccccc1` [Example 83, 2(R)-2-Benzyl-3-Morpholinocarbonylpropionic acid amide of His-2(S)-Amino-1-cyclohexyl-4,4-difluoro-3(R),5(R)-dihydroxy-6-methylheptane]: 1.5 nM.
Consider `CC(C)C[C@H](NC(=O)[C@H](Cc1ccccc1)NC(=O)OC(C)(C)C)C(=O)N[C@@H](CC1CCCCC1)[C@@H](O)C(F)(F)[C@H](O)C(C)C` [Example 60, Boc-Phe-Leu amide of 2(S)-Amino-1-cyclohexyl-4,4-difluoro-3(R),5(R)dihydroxy-6-methylheptane], for which the IC50 is 0.64 nM.
The figure for `CC(C)[C@@H](O)C(F)(F)[C@H](O)[C@H](CC1CCCCC1)NC(=O)C(Cc1cnc[nH]1)NC(=O)C(Cc1ccc(O)cc1)N(C)C(=O)CC(C)(C)NC(=O)OCc1ccccc1` (stereo partly drawn) [Example 80, Cbz((β,β-di-Me)-β-Ala)-(Me)Tyr-His amide of 2(S)-Amino-1-cyclohexyl-4,4-difluoro-3(R),5(R)-dihydroxy-6-methylheptane] is 1 nM; for `CC(C)C(O)C(F)(F)C(O)C(CC1CCCCC1)NC(=O)C(Cc1c[nH]cn1)NC(=O)C(=Cc1ccccc1)CC(=O)N1CCOCC1` [Example 87, (E)-2-((4-Morpholinylcarbonyl)methyl)cinnamic acid amide of His-2(S)-amino-1-cyclohexyl-4,4-difluoro-3(R),5(R)-dihydroxy-6-methylheptane] it is 5.2 nM.
